Measurements from PubChem BioAssay (NCI).
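Grown in 96-well plates, cells were treated for 48 hours with each compound at five concentrations. Insufficient inhibition: endpoint recorded as highest concentration tested. GI50: concentration for 50% inhibition of growth. Definition used: TGI = concentration required for complete inhibition of growth.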

Legend:
Assay in all cases: growth of human tumour cells (NCI), 48 h
[1] = tested on: NCI-H522 lung
[2] = tested on: SF-539 CNS
[3] = tested on: EKVX NSCLC
[4] = tested on: RXF 393 renal
[5] = tested on: HCT-116 colon
[6] = tested on: HT29 colon
[7] = tested on: OVCAR-5 ovarian
[8] = tested on: HOP-62 NSCLC
[9] = tested on: MDA-MB-231 breast
[10] = tested on: T-47D breast
[11] = tested on: MCF7 breast
[12] = tested on: M14 melanoma
[13] = tested on: UO-31 renal
[14] = tested on: OVCAR-8 ovarian
[15] = tested on: U251 CNS
[16] = tested on: SF-268 CNS
[17] = tested on: CCRF-CEM leukemia
[18] = tested on: NCI-H23 lung
[19] = tested on: SNB-19 CNS
[20] = tested on: UACC-257 melanoma
[21] = tested on: BT-549 breast
[22] = tested on: HL-60(TB) leukemia
[23] = tested on: TK-10 renal
[24] = tested on: NCI-H460 lung
[25] = tested on: HOP-92 NSCLC
[26] = tested on: LOX IMVI melanoma
[27] = tested on: UACC-62 melanoma
[28] = tested on: MOLT-4 leukemia
[29] = tested on: OVCAR-3 ovarian
[30] = tested on: SR leukemia
[31] = tested on: SF-295 CNS
[32] = tested on: A498 renal
[33] = tested on: MDA-MB-435
[34] = tested on: SK-MEL-2 melanoma
[35] = tested on: HCT-15 colon
[36] = tested on: K-562 leukemia
[37] = tested on: HCC-2998 colon
[38] = tested on: SK-MEL-5 melanoma
[39] = tested on: SK-OV-3 ovarian
[40] = tested on: HS 578T breast
[41] = tested on: SNB-75 CNS
[42] = tested on: COLO 205 colon
[43] = tested on: SK-MEL-28 melanoma
[44] = tested on: SN12C renal
[45] = tested on: RPMI-8226 leukemia
[46] = tested on: MALME-3M melanoma
[47] = tested on: NCI/ADR-RES ovarian
[48] = tested on: DU-145 prostate
[49] = tested on: IGROV1 ovarian
[50] = tested on: NCI-H226 lung
[51] = tested on: SW-620 colon
[52] = tested on: KM12 colon
[53] = tested on: CAKI-1 renal
[54] = tested on: A549 NSCLC
[55] = tested on: OVCAR-4 ovarian
[56] = tested on: PC-3 prostate
[57] = tested on: 786-0 renal

COC(=O)c1c2c(c(C)[n+]([O-])c1C)C(=O)C=C(NCc1ccc(F)cc1)C2=O
GI50 [1]: 792 nM
TGI [1]: 3200 nM
GI50 [2]: 641 nM
TGI [2]: 1870 nM
GI50 [3]: 963 nM
TGI [3]: 2230 nM
GI50 [4]: 1430 nM
TGI [4]: 2930 nM
GI50 [5]: 319 nM
TGI [5]: 1180 nM
GI50 [6]: 369 nM
GI50 [7]: 1390 nM
TGI [7]: 2880 nM
GI50 [8]: 1380 nM
TGI [8]: 3760 nM
GI50 [9]: 354 nM
TGI [9]: 4460 nM
GI50 [10]: 288 nM
TGI [10]: 1880 nM
GI50 [11]: 276 nM
TGI [11]: 1040 nM
GI50 [12]: 513 nM
TGI [12]: 1900 nM
GI50 [13]: 1240 nM
TGI [13]: 2530 nM
GI50 [14]: 370 nM
TGI [14]: 1930 nM
GI50 [15]: 999 nM
TGI [15]: 2620 nM
GI50 [16]: 1380 nM
TGI [16]: 4660 nM
GI50 [17]: 500 nM
TGI [17]: 6000 nM
GI50 [18]: 733 nM
TGI [18]: 3410 nM
GI50 [19]: 1380 nM
TGI [19]: 2830 nM
GI50 [20]: 258 nM
TGI [20]: 822 nM
GI50 [21]: 1300 nM
TGI [21]: 2630 nM
GI50 [22]: 454 nM
TGI [22]: 1920 nM
GI50 [23]: 3300 nM
TGI [23]: 9550 nM
GI50 [24]: 493 nM
TGI [24]: 2000 nM
GI50 [25]: 1720 nM
TGI [25]: 3830 nM
GI50 [26]: 224 nM
TGI [26]: 2090 nM
GI50 [27]: 175 nM
TGI [27]: 1160 nM
GI50 [28]: 858 nM
TGI [28]: 3090 nM
GI50 [29]: 245 nM
TGI [29]: 744 nM
GI50 [30]: 639 nM
TGI [30]: 9920 nM
GI50 [31]: 592 nM
TGI [31]: 1940 nM
GI50 [32]: 1260 nM
TGI [32]: 2560 nM
GI50 [33]: 173 nM
TGI [33]: 339 nM
GI50 [34]: 1110 nM
TGI [34]: 2780 nM
GI50 [35]: 341 nM
TGI [35]: 1860 nM
GI50 [36]: 251 nM
TGI [36]: 5040 nM
GI50 [37]: 442 nM
TGI [37]: 1770 nM
GI50 [38]: 193 nM
TGI [38]: 405 nM
GI50 [39]: 2530 nM
TGI [39]: 6450 nM
GI50 [40]: 1930 nM
TGI [40]: 6660 nM
GI50 [41]: 1650 nM
TGI [41]: 3030 nM
GI50 [42]: 301 nM
TGI [42]: 970 nM
GI50 [43]: 1100 nM
TGI [43]: 3370 nM
GI50 [44]: 345 nM
TGI [44]: 1410 nM
GI50 [45]: 1250 nM
TGI [45]: 4810 nM
GI50 [46]: 153 nM
TGI [46]: 389 nM
GI50 [47]: 432 nM
TGI [47]: 5380 nM
GI50 [48]: 1150 nM
TGI [48]: 2400 nM
GI50 [49]: 363 nM
TGI [49]: 1610 nM
GI50 [50]: 1770 nM
TGI [50]: 4130 nM
GI50 [51]: 344 nM
TGI [51]: 1380 nM
GI50 [52]: 357 nM
TGI [52]: 2220 nM
GI50 [53]: 527 nM
TGI [53]: 2760 nM
GI50 [54]: 794 nM
TGI [54]: 3150 nM
GI50 [55]: 254 nM
TGI [55]: 1100 nM
GI50 [56]: 317 nM
TGI [56]: 3680 nM
GI50 [57]: 1760 nM
TGI [57]: 4390 nM
